Reference: BigSolDB 2.1

CC(C)c1ccc2sc3ccccc3c(=O)c2c1
Conditions | solubility (mole fraction)
in 1,2-dichloroethane, 306.25 K | 0.392
in 1,2-dichloroethane, 309.15 K | 0.424
in 1,2-dichloroethane, 311.25 K | 0.455
in 1,2-dichloroethane, 315.15 K | 0.486
in 1,2-dichloroethane, 318.15 K | 0.516
in 1,2-dichloroethane, 321.15 K | 0.546
in 1,2-dichloroethane, 324.65 K | 0.572
in 1,2-dichloroethane, 326.85 K | 0.615
in 1,4-dioxane, 307.15 K | 0.34
in 1,4-dioxane, 310.15 K | 0.381
in 1,4-dioxane, 314.05 K | 0.429
in 1,4-dioxane, 317.15 K | 0.475
in 1,4-dioxane, 320.05 K | 0.512
in 1,4-dioxane, 323.15 K | 0.543
in 1,4-dioxane, 326.65 K | 0.589
in 1,4-dioxane, 329.85 K | 0.637
in acetone, 299.15 K | 0.126
in acetone, 303.15 K | 0.167
in acetone, 307.15 K | 0.219
in acetone, 310.15 K | 0.266
in acetone, 314.25 K | 0.319
in acetone, 317.15 K | 0.358
in acetone, 320.15 K | 0.383
in acetone, 323.15 K | 0.417
in ethanol, 305.65 K | 0.0424
in ethanol, 307.95 K | 0.0493
in ethanol, 309.65 K | 0.0557
in ethanol, 312.15 K | 0.0703
in ethanol, 315.15 K | 0.1
in ethanol, 318.15 K | 0.154
in ethanol, 321.15 K | 0.26
in ethyl acetate, 305.25 K | 0.192
in ethyl acetate, 308.15 K | 0.24
in ethyl acetate, 311.65 K | 0.283
in ethyl acetate, 314.15 K | 0.325
in ethyl acetate, 317.05 K | 0.355
in ethyl acetate, 320.15 K | 0.409
in ethyl acetate, 323.65 K | 0.461
in ethyl acetate, 327.15 K | 0.511
in methanol, 299.15 K | 0.00556
in methanol, 302.15 K | 0.00643
in methanol, 305.15 K | 0.00761
in methanol, 308.15 K | 0.00911
in methanol, 311.15 K | 0.0113
in methanol, 314.15 K | 0.0145
in methanol, 317.15 K | 0.0196
in methanol, 320.15 K | 0.0264
in toluene, 304.65 K | 0.332
in toluene, 308.15 K | 0.374
in toluene, 311.65 K | 0.412
in toluene, 315.15 K | 0.453
in toluene, 318.15 K | 0.489
in toluene, 321.05 K | 0.526
